{"source": "BindingDB's records for patent US9120808", "about": "(Nabriva Therapeutics, 2015)", "note": "pIC50: −log10 of the molar value. Values joined by “and” are separate entries in the source; they are usually repeats but may differ in a detail not shown here. Identical values can stand only once.", "data": [{"target": "Beta-lactamase (Escherichia coli (strain K12), UniProt P00811)", "sequence (P00811 whole entry)": "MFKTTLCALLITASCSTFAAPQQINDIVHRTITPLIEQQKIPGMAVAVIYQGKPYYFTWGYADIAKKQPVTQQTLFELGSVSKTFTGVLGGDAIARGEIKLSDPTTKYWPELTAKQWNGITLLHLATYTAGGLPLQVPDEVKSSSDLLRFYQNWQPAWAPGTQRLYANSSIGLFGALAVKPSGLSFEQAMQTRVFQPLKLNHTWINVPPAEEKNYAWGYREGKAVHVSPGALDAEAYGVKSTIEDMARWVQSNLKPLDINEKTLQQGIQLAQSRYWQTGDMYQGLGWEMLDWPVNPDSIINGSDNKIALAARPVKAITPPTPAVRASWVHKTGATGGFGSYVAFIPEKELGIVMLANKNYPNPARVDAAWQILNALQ", "test": "Cell Free Inhibition Assay", "conditions": "pH 7; 37 °C", "procedure": "(§1) Assays are performed with beta -lactamases expressed in the pET system (Novagen, San Diego, Calif.) without signal peptides. They contain an N-terminal hexa-Histidine tag that is used for purification on Ni-NTA (Qiagen, Hilden, Germany). The compounds are prepared as 50 mM stocks in DMSO and diluted into buffer P1 (50 mM phosphate, pH 7) to a final concentration of 10% DMSO. All further dilutions are done in P2 (P1 with 10% DMSO). Enzyme and compound dilutions are pre-incubated for 10 min at 37 C. and the reaction is started with the addition of pre-warmed (37 C.) […]. The change in absorption at 490 nm is followed at 37 C. for 10 min with 30 s intervals.", "values": [{"compound": "O=CC=C1O[C@@H]2CC(=O)N2C1(CC=CCO)C(=O)OCc1ccccc1", "note": "(single isomer, unassigned) [US9120808, Example 9]", "pIC50": "3.94 and 4.85"}, {"compound": "O=C(O)C=C1O[C@@H]2CC(=O)N2C1(C/C=C/c1ccccc1)C(=O)OCc1ccccc1", "note": "(single isomer, unassigned) [US9120808, Example 28]", "pIC50": "5.22 and 4.93"}, {"compound": "COC(=O)C1(C/C=C/c2ccccc2)C(=CC(=O)O)O[C@@H]2CC(=O)N21", "note": "(single isomer, unassigned) [US9120808, Example 36]", "pIC50": "4.39 and 5.38"}, {"compound": "O=C1OC(CI)CC1=C1O[C@@H]2CC(=O)N2C1C(=O)OCc1ccccc1", "note": "(single isomer, unassigned) [US9120808, Example 42]", "pIC50": "6.54 and 6.41"}, {"compound": "C=CCC(C=O)=C1O[C@@H]2CC(=O)N2C1C(=O)OCc1ccccc1", "note": "(some centres not stated) [US9120808, Example 1]", "pIC50": 4.98}, {"compound": "C=CCC1(C(=O)OCc2ccccc2)C(=CC=O)O[C@@H]2CC(=O)N21", "note": "(some centres not stated) [US9120808, Example 2]", "pIC50": 4.23}, {"compound": "C=CCC(C=O)=C1O[C@@H]2CC(=O)N2C1(CC=C)C(=O)OCc1ccccc1", "note": "(some centres not stated) [US9120808, Example 3]", "pIC50": 4.02}, {"compound": "O=CC(CC=CCO)=C1O[C@@H]2CC(=O)N2C1C(=O)OCc1ccccc1", "note": "(some centres not stated) [US9120808, Example 7]", "pIC50": 5.27}, {"compound": "CC(=O)OCC=CCC(C=O)=C1O[C@@H]2CC(=O)N2C1C(=O)OCc1ccccc1", "note": "(some centres not stated) [US9120808, Example 10]", "pIC50": 4.79}, {"compound": "C=CCC(C=O)=C1O[C@@H]2CC(=O)N2C1C(=O)OC", "note": "(some centres not stated) [US9120808, Example 16]", "pIC50": 6.03}, {"compound": "C=CCC1(C(=O)OC)C(=CC=O)O[C@@H]2CC(=O)N21", "note": "(some centres not stated) [US9120808, Example 17]", "pIC50": 4.44}, {"compound": "C=CCC(C(=O)O)=C1O[C@@H]2CC(=O)N2C1C(=O)OCc1ccccc1", "note": "(some centres not stated) [US9120808, Example 24]", "pIC50": 5.30}, {"compound": "C=CCC(C(=O)O)=C1O[C@@H]2CC(=O)N2C1C(=O)OC", "note": "(some centres not stated) [US9120808, Example 32]", "pIC50": 5.54}, {"compound": "CC1CC(=C2O[C@@H]3CC(=O)N3C2C(=O)O)C(=O)O1", "note": "(some centres not stated) [US9120808, Example 50]", "pIC50": 4.57}, {"compound": "CCCC(C(=O)O)=C1O[C@@H]2CC(=O)N2C1C(=O)O", "note": "(some centres not stated) [US9120808, Example 51]", "pIC50": 3.38}, {"compound": "COC(=O)C1C(=C(CCCc2ccccc2)C(=O)O)O[C@@H]2CC(=O)N12", "note": "(some centres not stated) [US9120808, Example 53]", "pIC50": 6.27}, {"compound": "CCCC(C(=O)O)=C1O[C@@H]2CC(=O)N2C1C(=O)OC", "note": "(some centres not stated) [US9120808, Example 54]", "pIC50": 5.47}, {"compound": "COC(=O)C(CCCc1ccccc1)=C1O[C@@H]2CC(=O)N2C1C(=O)OC", "note": "(some centres not stated) [US9120808, Example 57]", "pIC50": 5.27}, {"compound": "O=C(O)C(CC=CCN(Cc1ccccc1)C(=O)OCc1ccccc1)=C1O[C@@H]2CC(=O)N2C1C(=O)OCc1ccccc1", "note": "(some centres not stated) [US9120808, Example 58]", "pIC50": 5.35}, {"compound": "O=C(OCc1ccccc1)C1C(=C2COC(CI)C2)O[C@@H]2CC(=O)N12", "note": "(some centres not stated) [US9120808, Example 59]", "pIC50": 5.19}]}, {"target": "Beta-lactamase TEM (Escherichia coli, UniProt P62593)", "sequence (P62593 whole entry)": "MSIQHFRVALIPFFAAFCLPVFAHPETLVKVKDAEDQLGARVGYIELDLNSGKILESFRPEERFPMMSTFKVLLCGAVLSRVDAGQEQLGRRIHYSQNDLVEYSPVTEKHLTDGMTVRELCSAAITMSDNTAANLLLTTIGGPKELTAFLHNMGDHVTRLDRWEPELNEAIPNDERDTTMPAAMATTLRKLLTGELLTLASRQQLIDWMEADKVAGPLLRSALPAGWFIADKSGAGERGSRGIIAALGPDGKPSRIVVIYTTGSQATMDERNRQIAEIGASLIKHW", "test": "Cell Free Inhibition Assay", "conditions": "pH 7; 37 °C", "procedure": "as §1", "values": [{"compound": "CCCC(CO)=C1O[C@@H]2CC(=O)N2C1C(=O)O", "note": "(some centres not stated) [US9120808, Example 55]", "pIC50": 3.93}, {"compound": "CCCC1(C(=O)O)/C(=C/CO)O[C@@H]2CC(=O)N21", "note": "(some centres not stated) [US9120808, Example 56]", "pIC50": 4.75}]}]}
